Assay results as given in ChEMBL document CHEMBL1131687, “Dienyl diketones as anticancer agents: synthesis and biological evaluation of some aromatic derivatives” (1999).
≈ marks a conversion by molar mass, not a printed value.

How the values were obtained:
Assay type in all cases: functional
KB 3-1 = assay: In vitro cytotoxicity against the growth of KB-cell line; settings: Homo sapiens, read-out: LD50 (the source's name)
[1] = In vitro cytotoxicity against the growth of Colon-205 cancer cell line; settings: Homo sapiens, Cancer cell lines; read-out: LD50 (the source's name)
HEp-2 = assay: In vitro cytotoxicity against the growth of Hep-2 cell line; settings: Homo sapiens, read-out: LD50 (the source's name)
HeLa = assay: In vitro cytotoxicity against the growth of HeLa-cell line; settings: Homo sapiens, read-out: LD50 (the source's name)

SMILES	CC50 (KB 3-1) [µg/mL]	CC50 [1] [µg/mL]	CC50 (HEp-2) [µg/mL]	CC50 (HeLa) [µg/mL]
CCC(=O)/C=C/C=C\C(C)=O	> 10	> 10	> 10	> 10
CCCCCCC(=O)/C=C\C=C\C(=O)c1ccc(C(=O)OC)cc1	> 10	0.8 (≈ 2.44 µM)	> 10	> 10
CCC(=O)/C=C/C=C\C(=O)CC(C)C	> 10	> 10	> 10	> 10
CCCCCCC(=O)/C=C/C=C/C(=O)c1ccc(C(=O)OC)cc1	> 10	> 10	> 10	> 10
CCC(=O)/C=C\C=C\C(=O)c1ccccc1	> 10	1 (≈ 4.67 µM)	> 10	> 10
CC(=O)/C=C\C=C\C(=O)c1ccccc1	0.8 (≈ 4 µM)	1 (≈ 4.99 µM)	> 10	> 10
